Data: the supplement of paper PMC4862054

Columns and labels:
Settings in all cases: incubation time: 72 h
[1] = tested on: MDA-MB-468; assay: normalised response (% of control), CellTiter-Glo; higher = more viable cells (100 = DMSO, 0 = benzethonium chloride kill control)
In short: (§1)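 Breast cancer cell lines (20 µl suspension) were seeded into 384-well plates holding compound at 5 concentrations in 10-fold steps over a compound-specific 10,000-fold range, then incubated 72 h. CellTox Green fluorescence (485/520 nm) was read first, then CellTiter-Glo luminescence after 10 min at room temperature. Each plate was normalised to 0.1 % DMSO (100) and a positive kill control (0). Each value is the normalised signal at a single concentration of the series.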

[2] = tested on: CAL-148; assay: as above
In short: as §1

[3] = tested on: MCF-10A; assay: as above
In short: as §1

[4] = tested on: CAL-51; assay: as above
In short: as §1

[5] = tested on: MDA-MB-453; assay: as above
In short: as §1

[6] = tested on: HCC1143; assay: as above
In short: as §1

[7] = tested on: MDA-MB-436; assay: as above
In short: as §1

[8] = tested on: SK-BR-3; assay: as above
In short: as §1

[9] = tested on: CAL-85-1; assay: as above
In short: as §1

[10] = tested on: BT-549; assay: as above
In short: as §1

[11] = tested on: HDQ-P1; assay: as above
In short: as §1

[12] = tested on: MDA-MB-231; assay: as above
In short: as §1

[13] = tested on: MFM-223; assay: as above
In short: as §1

[14] = tested on: BT-474; assay: as above
In short: as §1

[15] = tested on: HCC1937; assay: as above
In short: as §1

[16] = tested on: DU-4475; assay: as above
In short: as §1

[17] = tested on: Hs578T; assay: as above
In short: as §1

[18] = tested on: CAL-120; assay: as above
In short: as §1

[19] = tested on: HCC1599; assay: as above
In short: as §1

[20] = tested on: MDA-MB-468; assay: normalised viability (% of control), CellTiter-Blue; higher = more viable cells (100 = DMSO, 0 = benzethonium chloride kill control)
In short: (§2)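 Vehicle (100) and a positive kill control (0) anchored the normalisation of each plate, and Z'-factor was used for quality control. Breast cancer cell lines in 20 µl suspension were incubated 72 h over compound in 5 µl medium in 384-well plates, followed by CellTiter-Blue at 560/590 nm. The value is normalised viability at a single listed concentration of the series.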

[21] = tested on: CAL-148; assay: as above
In short: as §2

[22] = tested on: CAL-51; assay: as above
In short: as §2

[23] = tested on: MDA-MB-453; assay: as above
In short: as §2

[24] = tested on: HCC1143; assay: as above
In short: as §2

[25] = tested on: MDA-MB-436; assay: as above
In short: as §2

[26] = tested on: SK-BR-3; assay: as above
In short: as §2

[27] = tested on: CAL-85-1; assay: as above
In short: as §2

[28] = tested on: BT-549; assay: as above
In short: as §2

[29] = tested on: HDQ-P1; assay: as above
In short: as §2

[30] = tested on: MDA-MB-231; assay: as above
In short: as §2

[31] = tested on: MFM-223; assay: as above
In short: as §2

[32] = tested on: BT-474; assay: as above
In short: as §2

[33] = tested on: HCC1937; assay: as above
In short: as §2

[34] = tested on: DU-4475; assay: as above
In short: as §2

[35] = tested on: Hs578T; assay: as above
In short: as §2

[36] = tested on: CAL-120; assay: as above
In short: as §2

[37] = tested on: HCC1599; assay: as above
In short: as §2

Row | SMILES | normalised response [1] | normalised response [2] | normalised response [3] | normalised response [4] | normalised response [5] | normalised response [6] | normalised response [7] | normalised response [8] | normalised response [9] | normalised response [10] | normalised response [11] | normalised response [12] | normalised response [13] | normalised response [14] | normalised response [15] | normalised response [16] | normalised response [17] | normalised response [18] | normalised response [19] | normalised viability [20] | normalised viability [21] | normalised viability [22] | normalised viability [23] | normalised viability [24] | normalised viability [25] | normalised viability [26] | normalised viability [27] | normalised viability [28] | normalised viability [29] | normalised viability [30] | normalised viability [31] | normalised viability [32] | normalised viability [33] | normalised viability [34] | normalised viability [35] | normalised viability [36] | normalised viability [37]
1 | COc1cc2nccc(Oc3ccc(NC(=O)C4(C(=O)Nc5ccc(F)cc5)CC4)cc3)c2cc1OC [Cabozantinib] (0.1 nM) | 103% | 99.7% | 92.2% | 87.8% | 116% | 96.2% | 83.3% | 97.5% | 97.1% | 102% | 95.2% | 104% | 99.5% | 101% | 100% | 95.2% | 100% | 103% | 113% | 105% | 107% | 103% | 99.4% | 95.4% | 103% | 101% | 90.2% | 115% | 96.1% | 115% | 93% | 100% | 94.8% | 101% | 97.4% | 83.8% | 77.6%
2 | O=C1CCC(N2C(=O)c3ccccc3C2=O)C(=O)N1 (stereo unspecified) [Thalidomide] (1 nM) | 98.5% | 96.4% | 104% | 93.9% | 96.6% | 95.5% | 101% | 96.8% | 100% | 104% | 101% | 104% | 98% | 99.2% | 97.7% | 95.1% | 98.2% | 99.3% | 111% | 105% | 122% | 86.2% | 108% | 100% | 97% | 102% | 109% | 95.2% | 110% | 88.7% | 96.1% | 76.9% | 90% | 101% | 106% | 115% | 104%
3 | CCC1(c2ccc(N)cc2)CCC(=O)NC1=O (stereo unspecified) [Aminoglutethimide] (1 nM) | 104% | 108% | 97.8% | 112% | 98.6% | 97% | 87.3% | 103% | 109% | 106% | 98.4% | 110% | 99.8% | 103% | 96.2% | 99.1% | 96.9% | 106% | 91.7% | 97.1% | 107% | 86.1% | 89.7% | 109% | 98.2% | 90% | 115% | 93.2% | 92.7% | 85.4% | 108% | 91.1% | 97.3% | 98.7% | 107% | 110% | 95.7%
4 | O=P1(NCCCl)OCCCN1CCCl (stereo unspecified) [Ifosfamide] (1 nM) | 95.3% | 99.4% | 92.1% | 78.5% | 90.3% | 89.7% | 97.8% | 93.3% | 93.9% | 102% | 98.1% | 97% | 87.2% | 94.2% | 94.8% | 93.7% | 98.8% | 92.2% | 94.2% | 124% | 118% | 110% | 107% | 88.9% | 95.2% | 98.3% | 84.3% | 122% | 119% | 122% | 93.8% | 86.7% | 87.6% | 116% | 55.3% | 89.7% | 109%
5 | CO[C@H]1/C=C\C=C(/C)C(=O)NC2=CC(=O)C(NCCN(C)C)=C(C[C@@H](C)C[C@H](OC)[C@H](O)[C@@H](C)/C=C(\C)[C@@H]1OC(N)=O)C2=O [Alvespimycin] (0.1 nM) | 116% | 106% | 101% | 69.6% | 111% | 95.1% | 97.5% | 111% | 100% | 105% | 94.8% | 98.5% | 107% | 105% | 92.7% | 109% | 91.2% | 105% | 112% | 104% | 102% | 92.8% | 99.2% | 103% | 98% | 104% | 102% | 91.9% | 105% | 99.7% | 99.9% | 102% | 113% | 108% | 117% | 100% | 76%
6 | COc1cc([C@@H]2c3cc4c(cc3[C@@H](O[C@@H]3O[C@@H]5CO[C@@H](C)O[C@H]5[C@H](O)[C@H]3O)[C@H]3COC(=O)[C@H]23)OCO4)cc(OC)c1O [Etoposide] (1 nM) | 101% | 104% | 110% | 134% | 106% | 110% | 128% | 109% | 98.6% | 114% | 105% | 113% | 107% | 103% | 98.8% | 106% | 105% | 101% | 107% | 98% | 110% | 87.8% | 103% | 107% | 105% | 97.5% | 99% | 96.9% | 96.3% | 90.8% | 100% | 91.5% | 86% | 112% | 97.3% | 98.1% | 121%
7 | Cn1c(CCCC(=O)O)nc2cc(N(CCCl)CCCl)ccc21 [Bendamustine] (1 nM) | 108% | 116% | 103% | 75.8% | 127% | 104% | 97.5% | 117% | 105% | 101% | 102% | 106% | 106% | 107% | 103% | 108% | 99.8% | 99.5% | 99.5% | 110% | 108% | 102% | 109% | 112% | 109% | 93.2% | 90.2% | 106% | 65.9% | 116% | 94.8% | 108% | 103% | 111% | 104% | 90.5% | 107%
8 | Cn1c(Nc2ccc(C(F)(F)F)cc2)nc2cc(Oc3ccnc(-c4ncc(C(F)(F)F)[nH]4)c3)ccc21 [RAF265] (0.1 nM) | 102% | 110% | 107% | 73.6% | 118% | 106% | 104% | 110% | 102% | 104% | 103% | 103% | 108% | 107% | 102% | 107% | 106% | 99% | 112% | 104% | 95.6% | 94.2% | 103% | 104% | 104% | 89.5% | 87.7% | 117% | 80.2% | 117% | 96% | 102% | 99% | 105% | 111% | 86.2% | 119%
